The text below walks through data of article PMC11083565, “Computational Design of Novel Cyclic Peptides Endowed with Autophagy-Inhibiting Activity on Cancer Cell Lines” (International Journal of Molecular Sciences, 2024).

The target of data set [1] is human recombinant His-tagged LC3B protein (Homo sapiens, UniProt Q9GZQ8). It counts as binding.
The next data set deals with DU145 cells. It counts as cell-based, human.
Data set [2] concerns LC3-I and LC3-II expression in PC3 cells. The data set can be described thus: Western blot of LC3-I / LC3-II in PC3 cells. In kind it is cell-based, human.
Data set [3] has as its system SQSTM1/p62 expression in PC3 cells. In kind it is cell-based, human.
In the next data set the test system is A549 cells. The conditions noted are these: 96 h, 5 µM.
The next data set relates to MCF-7 cells. The conditions noted are these: 96 h, 5 µM.
The test system of another data set is bladder cancer. On the set-up: method as in PMID 31574376. The conditions noted are these: combination with autophagy inhibitors; ref [27]; cited from earlier work.

Like-named read-outs stand apart in the source and are kept apart here. Where a SMILES comes first, the peptide text is derived from it. Bridges are numbered along the chain shown (N, C = ends). Where no end group is shown, it is not given here. [ ]: non-standard residue; d: D form. The star is where a group is joined. d(pT) = C[C@H](OP(=O)(O)O)[C@@H](N)C(=O)O; pY = N[C@@H](Cc1ccc(OP(=O)(O)O)cc1)C(=O)O; OBn = c1ccc(CO*)cc1; Bn = c1ccc(C*)cc1

Take `CC(=O)N[C@@H](CC(=O)O)C(=O)N[C@@H](CCC(=O)OCc1ccccc1)C(=O)N[C@@H](C(=O)N[C@@H](CCC(=O)O)C(=O)N[C@H](Cc1ccccc1)C(=O)N[C@@H](C(=O)N[C@@H](Cc1ccc(OP(=O)(O)O)cc1)C(=O)N[C@@H](CC(C)C)C(=O)N[C@@H](CCC(=O)O)C(=O)N[C@@H]1CSSC[C@H](C(N)=O)NC(=O)[C@H](CC(=O)O)NC1=O)[C@H](C)OP(=O)(O)O)[C@H](C)OCc1ccccc1` [Pep6] (Ac-DE(OBn)[dT](Bn)E[dF][d(pT)][pY]LE[dC]D[dC]-NH2; disulfide 10-12): in data set [1], the “Kd compared with LIR2-RavZ” value was “about three times lower”. Also, in the data set with DU145 cells, the “effect on DU145 cell viability” value was “ineffective”. For the same compound, in [2], the “LC3-I and LC3-II expression” value is “significantly reduced”; the LC3-II/LC3-I ratio entry is on record as “without changing the LC3-II/LC-I ratio”; the “LC3-II/LC3-I ratio with trehalose” value was “able to decrease the LC3-II/LC3- ratio compared to trehalose alone”. Further, in data set [3], the p62 expression entry is listed as “significantly increased”. Further, in the data set on PC3 cells, the “duration of antitumoral effect” value is on record as “more stable over time than Pep3”, the “effect on PC3 cell viability” value is “reduction in cell viability” and the “relative efficacy on PC3 cell viability” value is “greater efficacy of Pep6 compared to LIR2-RavZ at all doses used”. The “effect on PNT2 cells” value in the data set with PNT2 cells is recorded as “ineffective”. In addition, in the data set on A549 cells, the “cell viability A549” value was 76.7%. Moreover, in the data set on MCF-7 cells, the “cell viability MCF-7” value amounted to 80.7%.

For the compound `Cn1cnc(N)c2ncnc1-2` [Pep 3-MA, 3-methyladenine, reference compound], the “LC3-I and LC3-II expression” value in data set [2] (PC3, 3-MA 1 mM, compared with Pep3 effect) is “The same effect on LC3-I and LC3-II expression”.

Take `CNC(=O)c1ccc(N2C(=S)N(c3ccc(C#N)c(C(F)(F)F)c3)C(=O)C2(C)C)cc1F` [enzalutamide]: the “apoptosis of bladder cancer” value with bladder cancer was “effectively induced bladder cancer apoptosis in vitro and in vivo”.

As to “DIDEFDLLEGDE [LIR2-RavZ, reference compound]”, the “cell viability A549” value with A549 cells came out at 81.1%. For the same compound, the “cell viability MCF-7” value with MCF-7 cells turned out to be 85.4%.
